Marks after values point to notes of the source that are not given here.
Test system: Sprague-Dawley rats
Assay: Embryo-fetal developmental toxicity study in Sprague-Dawley rats (Example 3)
Procedure: For this study, a total of 140 time-mated female rats (approximately 8 to 10 weeks of age) were obtained from Charles River Laboratories, Raleigh, North Carolina, and acclimated from the time of arrival until the time of dosing on GD 6. During the acclimation period, the animals were observed twice daily with respect to general health and any signs of disease. All animals were given a detailed clinical examination and body weights were recorded prior to selection. […] Food consumption was collected during the acclimation period.
Animals received in-life and postmorten evaluations. […] All fetuses were given an external and visceral or skeletal examination.
Detailed clinical observations were made daily from GD 6 through 20 (4 hours±1 hour postdose on dosing days).
Food consumption for main study animals was measured and recorded on the corresponding body weight days and calculated for the same intervals.
The placentae were examined grossly.
The foci, if detected, were considered early resorptions, and data from this female were included in mean calculations

`CC(C)NC(=O)COc1cccc(-c2nc(Nc3ccc4[nH]ncc4c3)c3ccccc3n2)c1` [belumosudil, 2-{3-[4-(1H-indazol-5-ylamino)-2-quinazolinyl]phenoxy}-N-(propan-2-yl) acetamide] was tested, and the “Maternal Body Weight Change GD 6-9” value (15 mg base/kg/day) was 10.0 g, the “Maternal Body Weight Change GD 6-18” value (15 mg base/kg/day) was 93.8 g and the “Maternal Body Weight Change GD 6-20” value (15 mg base/kg/day) was 127.9 g. The “Maternal Body Weight Change GD 18-20” value (15 mg base/kg/day) was 34.0 g, the “Maternal Body Weight GD 9” value (15 mg base/kg/day) was 231.7 g and the “Maternal Body Weight GD 12” value (15 mg base/kg/day) was 257.0 g. The “Maternal Body Weight GD 15” value (15 mg base/kg/day) was 272.8 g, the “Maternal Body Weight GD 18” value (15 mg base/kg/day) was 315.5 g and the “Maternal Body Weight GD 20” value (15 mg base/kg/day) was 349.6 g. For the same compound, the “Maternal Food Consumption GD 6-9” value (15 mg base/kg/day) was 19.0, the “Maternal Food Consumption GD 6-18” value (15 mg base/kg/day) was 22.6 and the “Maternal Food Consumption GD 6-20” value (15 mg base/kg/day) was 23.2. For the same compound, the “Maternal Food Consumption GD 18-20” value (15 mg base/kg/day) was 27.3, the “Mean Fetal Body Weight Females” value (15 mg base/kg/day) was 4.00 g and the “Mean Fetal Body Weight Genders Combined” value (15 mg base/kg/day) was 4.10 g. The “Mean Fetal Body Weight Males” value (15 mg base/kg/day) was 4.19 g, the “Adjusted Final Body Weight, Mean” value (15 mg base/kg/day (N = 25)) was 278.5 g and the “Adjusted Weight Change From Day 6, Mean” value (15 mg base/kg/day (N = 25)) was 56.8. For the same compound, the “Final Body Weight, Mean” value (15 mg base/kg/day (N = 25)) was 349.6 g, the “Gravid Uterine Weight, Mean” value (15 mg base/kg/day (N = 25)) was 71.0 g and the “Discharge, Brown, Vulva, times observed/animals” value (15 mg base/kg/day, GD 6-20) was 1/1. For the same compound, the “Discharge, Red, Vulva, times observed/animals” value (15 mg base/kg/day, GD 6-20) was 0/0, the “Ear/portion of ear missing, Ear/left, times observed/animals” value (15 mg base/kg/day, GD 6-20) was 13/1 and the “Hair sparse, Abdominal region, times observed/animals” value (15 mg base/kg/day, GD 6-20) was 7/1. For the same compound, the “Hair sparse, Cervical region, times observed/animals” value (15 mg base/kg/day, GD 6-20) was 0/0, the “Hair sparse, Forefoot/left, times observed/animals” value (15 mg base/kg/day, GD 6-20) was 4/2 and the “Hair sparse, Forefoot/right, times observed/animals” value (15 mg base/kg/day, GD 6-20) was 0/0. The “Hair sparse, Forelimb/left, times observed/animals” value (15 mg base/kg/day, GD 6-20) was 12/3, the “Hair sparse, Forelimb/right, times observed/animals” value (15 mg base/kg/day, GD 6-20) was 17/3 and the “Hair sparse, Hind limb/left, times observed/animals” value (15 mg base/kg/day, GD 6-20) was 0/0. The “Hair sparse, Hind limb/right, times observed/animals” value (15 mg base/kg/day, GD 6-20) was 0/0, the “Hair sparse, Lumbar region, times observed/animals” value (15 mg base/kg/day, GD 6-20) was 0/0 and the “Hair sparse, Thoracic region, times observed/animals” value (15 mg base/kg/day, GD 6-20) was 0/0. For the same compound, the “Scabbed area, Face, times observed/animals” value (15 mg base/kg/day, GD 6-20) was 7/1, the “Scabbed area, Forelimb/right, times observed/animals” value (15 mg base/kg/day, GD 6-20) was 4/1 and the “Scabbed area, Tail, times observed/animals” value (15 mg base/kg/day, GD 6-20) was 0/0. The “Scabbed area, Thoracic region, times observed/animals” value (15 mg base/kg/day, GD 6-20) was 1/1, the “Tail missing - portion, times observed/animals” value (15 mg base/kg/day, GD 6-20) was 0/0 and the “Maternal Body Weight Change GD 6-9” value (50 mg base/kg/day) was 6.2^b g. The “Maternal Body Weight Change GD 6-18” value (50 mg base/kg/day) was 78.8^b g, the “Maternal Body Weight Change GD 6-20” value (50 mg base/kg/day) was 115.9^b g and the “Maternal Body Weight Change GD 18-20” value (50 mg base/kg/day) was 37.1 g. For the same compound, the “Maternal Body Weight GD 9” value (50 mg base/kg/day) was 225.5^a g, the “Maternal Body Weight GD 12” value (50 mg base/kg/day) was 246.3^b g and the “Maternal Body Weight GD 15” value (50 mg base/kg/day) was 262.6^b g. For the same compound, the “Maternal Body Weight GD 18” value (50 mg base/kg/day) was 298.1^b g, the “Maternal Body Weight GD 20” value (50 mg base/kg/day) was 335.2^b g and the “Maternal Food Consumption GD 6-9” value (50 mg base/kg/day) was 15.5^b. The “Maternal Food Consumption GD 6-18” value (50 mg base/kg/day) was 20.0^b, the “Maternal Food Consumption GD 6-20” value (50 mg base/kg/day) was 21.3^b and the “Maternal Food Consumption GD 18-20” value (50 mg base/kg/day) was 29.0. The “Mean Fetal Body Weight Females” value (50 mg base/kg/day) was 3.94 g, the “Mean Fetal Body Weight Genders Combined” value (50 mg base/kg/day) was 4.06 g and the “Mean Fetal Body Weight Males” value (50 mg base/kg/day) was 4.19 g. The “Adjusted Final Body Weight, Mean” value (50 mg base/kg/day (N = 25)) was 266.4^b g, the “Adjusted Weight Change From Day 6, Mean” value (50 mg base/kg/day (N = 25)) was 47.1^b and the “Final Body Weight, Mean” value (50 mg base/kg/day (N = 25)) was 335.2^b g. For the same compound, the “Gravid Uterine Weight, Mean” value (50 mg base/kg/day (N = 25)) was 68.8 g, the “Discharge, Brown, Vulva, times observed/animals” value (50 mg base/kg/day, GD 6-20) was 1/1 and the “Discharge, Red, Vulva, times observed/animals” value (50 mg base/kg/day, GD 6-20) was 4/4. For the same compound, the “Ear/portion of ear missing, Ear/left, times observed/animals” value (50 mg base/kg/day, GD 6-20) was 0/0, the “Hair sparse, Abdominal region, times observed/animals” value (50 mg base/kg/day, GD 6-20) was 0/0 and the “Hair sparse, Cervical region, times observed/animals” value (50 mg base/kg/day, GD 6-20) was 8/1. For the same compound, the “Hair sparse, Forefoot/left, times observed/animals” value (50 mg base/kg/day, GD 6-20) was 0/0, the “Hair sparse, Forefoot/right, times observed/animals” value (50 mg base/kg/day, GD 6-20) was 0/0 and the “Hair sparse, Forelimb/left, times observed/animals” value (50 mg base/kg/day, GD 6-20) was 10/2. The “Hair sparse, Forelimb/right, times observed/animals” value (50 mg base/kg/day, GD 6-20) was 10/2, the “Hair sparse, Hind limb/left, times observed/animals” value (50 mg base/kg/day, GD 6-20) was 0/0 and the “Hair sparse, Hind limb/right, times observed/animals” value (50 mg base/kg/day, GD 6-20) was 0/0. For the same compound, the “Hair sparse, Lumbar region, times observed/animals” value (50 mg base/kg/day, GD 6-20) was 0/0, the “Hair sparse, Thoracic region, times observed/animals” value (50 mg base/kg/day, GD 6-20) was 7/1 and the “Scabbed area, Face, times observed/animals” value (50 mg base/kg/day, GD 6-20) was 0/0. For the same compound, the “Scabbed area, Forelimb/right, times observed/animals” value (50 mg base/kg/day, GD 6-20) was 0/0 and the “Scabbed area, Tail, times observed/animals” value (50 mg base/kg/day, GD 6-20) was 0/0.

— patent US20240277713A1 (Kadmon Corporation, LLC, priority 2022, published 2024)
